Experimental data published in US6525001B1, “Substituted pyrimidine and pyridine herbicides” (Mid-American Commercialization Corporation, priority 1997, dated 2003).

Key:
Assay type in all cases: in vivo
Design in all cases: key: 0 is no effect; 10 is complete control
[1] = tested on: bedstraw (Galium aparine); experiment: Test B pre-/postemergence; conditions: Postemergence
Method in brief: (§1)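 Response scores run from 0, meaning no effect, to 10, meaning complete control, assigned by eye relative to controls twelve to sixteen days after spraying. Treatment was both preemergence on planted seed and postemergence on plants at the 1- to 4-leaf stage.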

[2] = tested on: blackgrass (Alopecurus myosuroides); experiment: Test B pre-/postemergence
Method in brief: as §1

[3] = tested on: broadleaf signalgrass (Brachiaria decumbens); experiment: Test B pre-/postemergence
Method in brief: as §1

[4] = tested on: cocklebur (Xanthium strumarium); experiment: Test B pre-/postemergence
Method in brief: as §1

corn (Zea mays) = experiment: Test B pre-/postemergence
Method in brief: as §1

[5] = tested on: crabgrass (Digitaria sanguinalis); experiment: Test B pre-/postemergence
Method in brief: as §1

[6] = tested on: giant foxtail (Setaria faberii); experiment: Test B pre-/postemergence
Method in brief: as §1

[7] = tested on: momingglory (Ipomoea hederacea); experiment: Test B pre-/postemergence
Method in brief: as §1

[8] = tested on: pigweed (Amaranthus retroflexus); experiment: Test B pre-/postemergence
Method in brief: as §1

[9] = tested on: purple nutsedge (Cyperus rotundus); experiment: Test B pre-/postemergence; conditions: Preemergence
Method in brief: as §1

rape (Brassica napus) = experiment: Test B pre-/postemergence
Method in brief: as §1

soybean (Glycine max) = experiment: Test B pre-/postemergence
Method in brief: as §1

[10] = tested on: sugar beet (Beta vulgaris); experiment: Test B pre-/postemergence
Method in brief: as §1

[11] = tested on: velvetleaf (Abutilon theophrasti); experiment: Test B pre-/postemergence
Method in brief: as §1

[12] = tested on: wheat (Triticum aestivum); experiment: Test B pre-/postemergence
Method in brief: as §1

wild oat (Avena fatua) = experiment: Test B pre-/postemergence
Method in brief: as §1

[13] = tested on: bamyardgrass (Echinochloa crus-galli); experiment: Test B flood test
Method in brief: (§2)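 Each value is a visual injury score relative to controls, with 10 meaning complete control and 0 no effect. Evaluation took place twelve to sixteen days after the 2-leaf-stage plants were treated and kept in the greenhouse.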

[14] = tested on: duck salad (Heteranthera limosa); experiment: Test B flood test
Method in brief: as §2

rice (Oryza sativa) = experiment: Test B flood test
Method in brief: as §2

[15] = tested on: smallflower flatsedge (Cyperus difformis); experiment: Test B flood test
Method in brief: as §2

[16] = Preemergence, Rate 62 g/ha, scale of 0 to 10
[17] = Rate 62 g/ha, Postemergence (flood test)
[18] = Rate 125 g/ha, Postemergence section (flood test species)
[19] = Rate 250 g/ha, Postemergence (flood test species)

`O=C(c1cccc(C(F)(F)F)c1)c1ccnc(-c2ccc(F)cc2F)n1` [Compound 76] was tested, and the “Bedstraw plant response rating” value ([1]; Rate 62 g/ha) was 0, the “Bedstraw plant response rating” value ([1]; Rate 125 g/ha) was 0 and the “Plant response rating, Bedstraw” value ([1]; Rate 250 g/ha) was 0. The “Plant response rating, Blackgrass” value [2, 16] was 0, the “Blackgrass plant response rating” value ([2]; Rate 62 g/ha, Postemergence) was 0 and the “Blackgrass plant response rating” value ([2]; Rate 125 g/ha, Postemergence) was 0. For the same compound, the “Plant response rating, Blackgrass” value ([2]; Rate 125 g/ha, Preemergence) was 0, the “Plant response rating, Blackgrass” value ([2]; Rate 250 g/ha, Postemergence) was 0 and the “Plant response rating, Blackgrass” value ([2]; Rate 250 g/ha, Preemergence) was 0. For the same compound, the “B. signalgrass plant response rating” value ([3]; Rate 62 g/ha, Postemergence) was 0, the “B. signalgrass plant response rating” value ([3]; Rate 62 g/ha, Preemergence) was 0 and the “B. signalgrass plant response rating” value ([3]; Rate 125 g/ha, Postemergence) was 0. The “Plant response rating, B. signalgrass” value ([3]; Rate 125 g/ha, Preemergence) was 0, the “Plant response rating, B. signalgrass” value ([3]; Rate 250 g/ha, Postemergence) was 0 and the “Plant response rating, B. signalgrass” value ([3]; Rate 250 g/ha, Preemergence) was 0. For the same compound, the “Plant response rating, Cocklebur” value [4, 16] was 0, the “Cocklebur plant response rating” value ([4]; Rate 62 g/ha, Postemergence) was 1 and the “Cocklebur plant response rating” value ([4]; Rate 125 g/ha, Postemergence) was 3. For the same compound, the “Plant response rating, Cocklebur” value ([4]; Rate 125 g/ha, Preemergence) was 0, the “Plant response rating, Cocklebur” value ([4]; Rate 250 g/ha, Postemergence) was 4 and the “Plant response rating, Cocklebur” value ([4]; Rate 250 g/ha, Preemergence) was 0. For the same compound, the “Plant response rating, Corn” value (corn (Zea mays); [16]) was 0, the “Corn plant response rating” value (corn (Zea mays); Rate 62 g/ha, Postemergence) was 1 and the “Corn plant response rating” value (corn (Zea mays); Rate 125 g/ha, Postemergence) was 1. The “Plant response rating, Corn” value (corn (Zea mays); Rate 125 g/ha, Preemergence) was 0, the “Plant response rating, Corn” value (corn (Zea mays); Rate 250 g/ha, Postemergence) was 1 and the “Plant response rating, Corn” value (corn (Zea mays); Rate 250 g/ha, Preemergence) was 0. The “Plant response rating, Crabgrass” value [5, 16] was 0, the “Crabgrass plant response rating” value ([5]; Rate 62 g/ha, Postemergence) was 0 and the “Crabgrass plant response rating” value ([5]; Rate 125 g/ha, Postemergence) was 0. The “Plant response rating, Crabgrass” value ([5]; Rate 125 g/ha, Preemergence) was 0, the “Plant response rating, Crabgrass” value ([5]; Rate 250 g/ha, Postemergence) was 1 and the “Plant response rating, Crabgrass” value ([5]; Rate 250 g/ha, Preemergence) was 0. For the same compound, the “Plant response rating, Giant foxtail” value [6, 16] was 0, the “Giant foxtail plant response rating” value ([6]; Rate 62 g/ha, Postemergence) was 0 and the “Giant foxtail plant response rating” value ([6]; Rate 125 g/ha, Postemergence) was 0. The “Plant response rating, Giant foxtail” value ([6]; Rate 125 g/ha, Preemergence) was 0, the “Plant response rating, Giant foxtail” value ([6]; Rate 250 g/ha, Postemergence) was 1 and the “Plant response rating, Giant foxtail” value ([6]; Rate 250 g/ha, Preemergence) was 0. The “Plant response rating, Morningglory” value [7, 16] was 0, the “Morningglory plant response rating” value ([7]; Rate 62 g/ha, Postemergence) was 0 and the “Morningglory plant response rating” value ([7]; Rate 125 g/ha, Postemergence) was 0. For the same compound, the “Plant response rating, Morningglory” value ([7]; Rate 125 g/ha, Preemergence) was 0, the “Plant response rating, Morningglory” value ([7]; Rate 250 g/ha, Postemergence) was 1 and the “Plant response rating, Morningglory” value ([7]; Rate 250 g/ha, Preemergence) was 0. The “Plant response rating, Redroot pigweed” value [8, 16] was 0, the “Redroot pigweed plant response rating” value ([8]; Rate 62 g/ha, Postemergence) was 1 and the “Redroot pigweed plant response rating” value ([8]; Rate 125 g/ha, Postemergence) was 1. For the same compound, the “Plant response rating, Redroot pigweed” value ([8]; Rate 125 g/ha, Preemergence) was 0, the “Plant response rating, Redroot pigweed” value ([8]; Rate 250 g/ha, Postemergence) was 2 and the “Plant response rating, Redroot pigweed” value ([8]; Rate 250 g/ha, Preemergence) was 0. The “Plant response rating, Nutsedge” value ([9]; Rate 62 g/ha, scale of 0 to 10) was 0, the “Plant response rating, Nutsedge” value ([9]; Rate 125 g/ha) was 0 and the “Plant response rating, Rape” value (rape (Brassica napus); [16]) was 0. For the same compound, the “Rape plant response rating” value (rape (Brassica napus); Rate 62 g/ha, Postemergence) was 1, the “Rape plant response rating” value (rape (Brassica napus); Rate 125 g/ha, Postemergence) was 2 and the “Plant response rating, Rape” value (rape (Brassica napus); Rate 125 g/ha, Preemergence) was 0. The “Plant response rating, Rape” value (rape (Brassica napus); Rate 250 g/ha, Postemergence) was 2, the “Plant response rating, Rape” value (rape (Brassica napus); Rate 250 g/ha, Preemergence) was 0 and the “Plant response rating, Soybean” value (soybean (Glycine max); [16]) was 0. For the same compound, the “Soybean plant response rating” value (soybean (Glycine max); Rate 62 g/ha, Postemergence) was 0, the “Soybean plant response rating” value (soybean (Glycine max); Rate 125 g/ha, Postemergence) was 0 and the “Plant response rating, Soybean” value (soybean (Glycine max); Rate 125 g/ha, Preemergence) was 0. The “Plant response rating, Soybean” value (soybean (Glycine max); Rate 250 g/ha, Postemergence) was 1, the “Plant response rating, Soybean” value (soybean (Glycine max); Rate 250 g/ha, Preemergence) was 0 and the “Plant response rating, Sugarbeets” value [10, 16] was 0. The “Sugarbeets plant response rating” value ([10]; Rate 62 g/ha, Postemergence) was 1, the “Sugarbeets plant response rating” value ([10]; Rate 125 g/ha, Postemergence) was 2 and the “Plant response rating, Sugarbeets” value ([10]; Rate 125 g/ha, Preemergence) was 0. The “Plant response rating, Sugarbeets” value ([10]; Rate 250 g/ha, Postemergence) was 3, the “Plant response rating, Sugarbeets” value ([10]; Rate 250 g/ha, Preemergence) was 0 and the “Plant response rating, Velvetleaf” value [11, 16] was 0. For the same compound, the “Velvetleaf plant response rating” value ([11]; Rate 62 g/ha, Postemergence) was 0, the “Velvetleaf plant response rating” value ([11]; Rate 125 g/ha, Postemergence) was 1 and the “Plant response rating, Velvetleaf” value ([11]; Rate 125 g/ha, Preemergence) was 0. For the same compound, the “Plant response rating, Velvetleaf” value ([11]; Rate 250 g/ha, Postemergence) was 1, the “Plant response rating, Velvetleaf” value ([11]; Rate 250 g/ha, Preemergence) was 0 and the “Plant response rating, Wheat” value [12, 16] was 0. The “Wheat plant response rating” value ([12]; Rate 62 g/ha, Postemergence) was 0, the “Wheat plant response rating” value ([12]; Rate 125 g/ha, Postemergence) was 0 and the “Plant response rating, Wheat” value ([12]; Rate 125 g/ha, Preemergence) was 0. The “Plant response rating, Wheat” value ([12]; Rate 250 g/ha, Postemergence) was 0, the “Plant response rating, Wheat” value ([12]; Rate 250 g/ha, Preemergence) was 0 and the “Plant response rating, Wild oats” value (wild oat (Avena fatua); [16]) was 0. The “Wild oats plant response rating” value (wild oat (Avena fatua); Rate 62 g/ha, Postemergence) was 0, the “Wild oats plant response rating” value (wild oat (Avena fatua); Rate 125 g/ha, Postemergence) was 0 and the “Plant response rating, Wild oats” value (wild oat (Avena fatua); Rate 125 g/ha, Preemergence) was 0. For the same compound, the “Plant response rating, Wild oats” value (wild oat (Avena fatua); Rate 250 g/ha, Postemergence) was 0, the “Plant response rating, Wild oats” value (wild oat (Avena fatua); Rate 250 g/ha, Preemergence) was 0 and the “Barnyardgrass plant response rating” value [13, 17] was 0. For the same compound, the “Barnyardgrass plant response rating” value [13, 18] was 0, the “Plant response rating, Barnyardgrass” value [13, 19] was 0 and the “Ducksalad plant response rating” value [14, 17] was 0. For the same compound, the “Ducksalad plant response rating” value [14, 18] was 0, the “Plant response rating, Ducksalad” value [14, 19] was 0 and the “Rice plant response rating” value (rice (Oryza sativa); [17]) was 0. For the same compound, the “Rice plant response rating” value (rice (Oryza sativa); [18]) was 0, the “Plant response rating, Rice” value (rice (Oryza sativa); [19]) was 0 and the “S. Flatsedge plant response rating” value [15, 17] was 0. The “S. Flatsedge plant response rating” value [15, 18] was 0 and the “Plant response rating, S. Flatsedge” value [15, 19] was 0.
